# Laboratory results published in patent US20210386829A1, “COMPOSITIONS AND METHODS FOR MODULATING CGRP SIGNALING TO REGULATE INNATE LYMPHOID CELL INFLAMMATORY RESPONSES” (The Broad Institute, Inc., priority 2018, published 2021).
# Test system: IL-25+NMU-induced airway inflammation
# Test: IL-25+NMU-induced airway inflammation, intranasal co-administration of CGRP
# Format: in vivo, mouse
# Protocol: Cytokine-induced airway inflammation. Mice received nasally 500 ng IL-25, 500 ng IL-33, 20 ug NMU or 6.65 ug CGRP diluted in DPBS for three consecutive days. For nasal administration, mice were lightly anesthetized with Isoflurane (Cat #07-893-1389; Patterson Veterinary). For induction of inflammatory ILC2s, mice received intraperitoneally 500 ng IL-25 for three consecutive days. One day after the last treatment, mice were euthanized and perfused with 8 ml cold PBS via the right heart ventricle. After exposure of the trachea, a small incision was made at the top of the trachea and a curved gavage needle was inserted. Lungs were washed with 1.5 ml cold PBS via the needle and the retrieved bronchoalveolar lavage fluid was centrifuged at 1300 rpm for 5 min at 4 C. After centrifugation, the supernatant was frozen at −20° C. and the cell pellet was resuspended in 250 ul complete medium and stored on ice until flow cytometric analysis. The post-caval lung lobe was transferred into 10% buffered formalin and stored at room temperature until paraffin embedding for histological analysis. The other lung lobes were dissociated using the lung dissociation kit (Cat #130-095-927; Miltenyi Biotec) and automated tissue dissociator (gentleMACS; Miltenyi Biotec) as described above with the adjustment that after running program lung_02, the single cell suspension was centrifuged at 1300 rpm for 5 min at 4° C. and 1 ml of the supernatant was frozen at −20° C. Single-cell suspension was resuspended in complete cell culture medium and stored on ice until further processing.
# For cell counts, lung cells were transferred into FACS tubes and stained with 7AAD. Precision Count Beads (Cat #424902; BioLegend) were added according to manufacturer's instructions. Cells and beads were acquired on a BD LSRFortessa (BD Biosciences) and cell numbers were calculated based on number of acquired live (7AAD−) cells and number of acquired beads.
# For flow cytometric analysis, lung cells were transferred into a 96 well V-bottom plate and stained with surface antibodies for 20 min at 4° C. in the dark. Cells were washed twice with DPBS containing 2% fetal bovine serum and transferred into 1.2 ml tubes for analysis by flow cytometry. For intracellular cytokine staining, cells were incubated in complete cell culture medium with 50 ng/ml phorbol 12-myristate 13-acetate (Sigma-Aldrich), 1 uM ionomycin (Sigma-Aldrich) and GolgiStop (Cat #554724; BD Biosciences) in a humidified incubator at 37° C. and 10% CO2. After 5 hours, cells were transferred into 96 well V-bottom plate, stained with Fixable Viability Dye eFluor 506 (Cat #65-0866-14; Thermo Fisher) and surface antibodies for 20 min at 4° C. in the dark and washed twice with DPBS containing 2% fetal bovine serum. Then, cells were incubated with BD Cytofix/Cytoperm Buffer (Cat #51-2090KZ; BD Biosciences) for 20 min, followed by a wash with BD Perm/Wash Buffer (Cat #51-2091KZ; BD Biosciences). Subsequently, cells were incubated with antibodies targeting intracellular proteins diluted in BD Perm/Wash Buffer for 20 min and after two wash steps, transferred into 1.2 ml tubes for analysis by flow cytometry. For ki67 staining, cells were stained for surface antibodies as described above, fixed with a solution of Fixation/Permeabilization Concentrate (Cat #00-5123-43; Invitrogen) and Fixation/Perm Diluent (Cat #00-5223-56; Invitrogen) for 20 min, washed with Permeabilization Buffer (Cat #00-8333-56; Invitrogen). Then, cells were incubated with ki67 antibody diluted in Permeabilization Buffer for 20 min, washed and transferred into FACS tubes. Cells were analyzed on a BD LSRFortessa (BD Biosciences) flow cytometer with 5 lasers (355 nm, 405 nm, 488 nm, 561 nm and 640 nm). Data was analyzed using FlowJo v10.5.0 software and cell populations were gated as described previously (Wallrapp 2017).
# RNA isolation and cDNA synthesis. […]
substance,measurement,setting,value
"CGRP: neuropeptide calcitonin gene-related peptide (encoded by Calca), ligand of the Ramp1/Calcrl receptor; given at 100 nM in vitro, 6.65 ug nasally",lung ILC frequencies and numbers,"IL-25+CGRP vs IL-25, nasal, three consecutive days",no effect
same,IL-5 protein in lung tissue and BALF,IL-25+NMU+CGRP vs IL-25+NMU,non-significant trend towards reduced expression
same,IL-13 protein in lung tissue and bronchoalveolar lavage fluid,IL-25+NMU+CGRP vs IL-25+NMU,reduced
same,ILC proliferation (intracellular Ki67),IL-25+NMU+CGRP vs IL-25+NMU,significantly decreased
same,eosinophil frequency and numbers in the BAL,IL-25+NMU+CGRP vs IL-25+NMU,towards decreased
same,lung ILC frequencies and numbers,IL-25+NMU+CGRP vs IL-25+NMU,strong reduction
same,type 2 cytokine mRNA in lung tissue,IL-25+NMU+CGRP vs IL-25+NMU,diminished expression
